Starred links: 1 amine or outer side, 2 acyl side, 3 side chain; linkers in the order of their positions; H or OH if unused. Suc = O=C(CCC(=O)[*:2])[*:1]
Columns and labels:
[1] = system: cervical carcinoma HeLa cells; assay type: cell-based, human; conditions: MTT, 72 h incubation; read-out: IC50 (μM) ± SD Hela
Experimental: (§1) All cell lines were purchased from the American Type Culture Collection (ATCC, Manassas, VA)[29].
(§2) 24 h later, triplicate wells were treated with media and the compounds being tested. After 72 h of incubation at 37 °C in 5% CO2, the drug-containing medium was removed and replaced with […] of fresh medium containing 5 mg/mL MTT solution. After 4 h of incubation, the medium with MTT was removed, and […] of dimethyl sulfoxide (DMSO) was added to each well. The plates were gently agitated until the purple formazan crystals were dissolved, and the OD490 values were determined using a microplate reader (MK3, Thermo, Germany). The data were calculated and plotted as the percent viability compared to the control.

[2] = system: gastric adenocarcinoma SGC-7901 cells; assay type: cell-based, human; conditions: MTT, 72 h incubation; read-out: IC50 (μM) ± SD SGC-7901
Experimental: as §1, §2

[3] = system: lung adenocarcinoma A549 cells; assay type: cell-based, human; conditions: MTT, 72 h incubation; read-out: IC50 (μM) ± SD A549
Experimental: as §1, §2

[4] = system: mouse fibroblasts L929 cells; assay type: cell-based; conditions: MTT, 72 h incubation, normal cells; read-out: IC50 (μM) ± SD L929
Experimental: as §1, §2

[5] = Physiological stability by HPLC analysis; assay type: physicochemical; conditions: 5 µM; water, PBS, and cell culture fluid; 72 h incubation, room temperature
Experimental: Figure 4. Stabilities of Deac-SS-Biotin (9, 5 µM) in water, and PBS cell culture fluid were investigated by HPLC analysis. (A) HPLC analysis of Deac-SS-Biotin (9) in water after incubation for and 72 h; (B) HPLC analysis of Deac-SS-Biotin (9) in PBS after incubation for and 72 h; (C) HPLC analysis of Deac-SS-Biotin (9) in cell culture fluid after incubation for and 72 h.
To 8 ml of water, PBS, or cell culture fluid, 2 ml of DMSO stock solution of Deac-SS-Biotin was added. The mixture was incubated with gentle shaking for 72 h at room temperature during which the mixture was measured by HPLC spectra.

[6] = In vitro release of Deac from biotin conjugates with DTT (HPLC); assay type: physicochemical; conditions: 5 μM conjugate
Experimental: To investigate the mechanism of GSH-triggered drug release, the in vitro drug release profiles of Deac-SS-Biotin (9) and Deac-Biotin (10) were investigated using DTT (Glutathione mimetic). As shown in Figure 5(A), almost none of Deac was released from Deac-SS-Biotin (9) within 24 h in blank PBS (pH 7.2–7.4, without DTT), and more than 70% of Deac was released within 8 h in the presence of 5, 10, and 20 μM DTT. By contrast, there was negligible Deac (<1.0%) released from Deac-Biotin (10) after 24 h incubation in the presence or absence of 20 μM DTT (Figure 5(B)). […] Furthermore, Deac release from the Deac-SS-Biotin (9) at 10 μM DTT was also investigated by HPLC analysis (Figure 5(C)). Free Deac-SS-Biotin (9) was eluted at 10.8 min in HPLC chromatogram. As 10 μM DTT was added to Deac-SS-Biotin (9), it was sheared by DTT. As chemical reaction involved, this scission was subjected to intramolecular cyclisation, followed by ring-forming condensation, resulting in the liberation of Deac. The peak at 14.3 min appeared accompanied by the disappearance of Deac-SS-Biotin (9), and well-matched with free Deac.
Figure 5. In vitro release of Deac from prodrugs. (A) Release profiles of Deac from Deac-SS-Biotin (9, 5 μM) with 0 μM, 5 μM, 10 μM and 20 μM DTT in PBS (pH 7.2–7.4) (n = 3). (B) Release profiles of Deac from Deac-Biotin (10, 5 μM) with 0 μM, 5 μM, 10 μM and 20 μM DTT in PBS (pH 7.2–7.4) (n = 3). (C) HPLC spectra of Deac-SS-Biotin (9, 5 μM) with 10 μM DTT at 0 and 24 h.
The release of Deac from Deac-SS-Biotin was studied in PBS (pH 7.2–7.4) containing 20% DMSO with 0, 5, 10, or 20 μM, dithiothreitol (DTT), respectively. Briefly, biotin-conjugates (5 μM) were incubated in 10 ml of release medium at 37 °C. At timed intervals, 0.1 ml of sample was withdrawn, and the content of Deac, Deac-Biotin, and Deac-SS-Biotin was determined by HPLC (HPLC-LC-20AT, Shimadzu using SPD-20A UV as the detector, C18 (4.6 × 250 mm, […]) as HPLC analysis column. Method: gradient: 45% methanol in water as mobile elution, flow rate: 1.0 ml min^-1). The UV detector was kept at 254 nm.

[7] = system: A549 cells; experiment: Cytotoxicity in A549 cells in the presence of biotin (biotin receptor competition); assay type: cell-based, human
Experimental: To explore the contribution of biotin receptor to the transport of biotin conjugates, Deac-SS-Biotin (9) and biotin were evaluated for the antiproliferative activity against A549 cells.
Figure 6. In vitro cytotoxicity of biotin, Deac (13), and Deac-SS-Biotin (9) in A549 cells. Cytotoxicity of biotin, Deac + biotin, and Deac-SS-Biotin + biotin in A549 cells (n = 3).
as §2

[8] = target: porcine brain tubulin (Sus scrofa, UniProt P02550+P02554)
Sequence of porcine brain tubulin (P02554 whole entry): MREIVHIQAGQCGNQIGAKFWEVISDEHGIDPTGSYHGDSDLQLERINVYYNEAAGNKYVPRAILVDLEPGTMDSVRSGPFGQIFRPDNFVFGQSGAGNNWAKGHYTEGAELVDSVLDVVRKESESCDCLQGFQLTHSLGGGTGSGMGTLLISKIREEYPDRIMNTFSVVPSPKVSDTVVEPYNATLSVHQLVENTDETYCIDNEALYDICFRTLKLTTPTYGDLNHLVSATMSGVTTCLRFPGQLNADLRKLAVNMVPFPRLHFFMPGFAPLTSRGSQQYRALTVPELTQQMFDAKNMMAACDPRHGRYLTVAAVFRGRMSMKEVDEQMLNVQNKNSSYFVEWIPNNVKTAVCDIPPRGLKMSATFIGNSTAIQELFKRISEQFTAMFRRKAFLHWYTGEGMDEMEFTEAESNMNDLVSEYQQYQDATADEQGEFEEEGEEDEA
Sequence of porcine brain tubulin (P02550 whole entry): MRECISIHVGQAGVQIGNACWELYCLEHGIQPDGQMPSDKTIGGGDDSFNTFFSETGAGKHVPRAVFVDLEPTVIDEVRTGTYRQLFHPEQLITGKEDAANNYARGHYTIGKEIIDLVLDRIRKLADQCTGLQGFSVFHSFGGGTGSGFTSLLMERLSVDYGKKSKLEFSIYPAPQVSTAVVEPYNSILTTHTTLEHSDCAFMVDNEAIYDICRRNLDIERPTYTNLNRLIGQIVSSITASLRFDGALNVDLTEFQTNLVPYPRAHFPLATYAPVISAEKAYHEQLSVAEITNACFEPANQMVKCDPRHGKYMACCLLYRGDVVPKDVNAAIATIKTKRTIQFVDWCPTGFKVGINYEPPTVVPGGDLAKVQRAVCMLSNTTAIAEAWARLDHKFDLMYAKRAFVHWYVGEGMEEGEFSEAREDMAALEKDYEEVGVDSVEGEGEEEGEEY
Experimental: To examine the biological mechanism of biotin conjugates, Deac-SS-Biotin (9) was evaluated for its effects on tubulin polymerisation (Figure 7).
Figure 7. The effect of Deac-SS-Biotin (9) on tubulin polymerisation. […] The reaction was monitored at 37 °C.
First, 96-well plate was incubated with […] of inhibitors in various concentrations at 37 °C for 1 min. Then […] of the tubulin reaction mix was added. The samples were mixed well, and tubulin assembly was monitored (emission wavelength of 420 nm; excitation wavelength pf 360 nm) at 1 min intervals for 90 min at 37 °C using a plate reader (FAS-Calibur, BD Biosciences, USA).

[9] = system: cells over-expressing active legumain (M38L, HCT116); conditions: HCT116 vs HEK293, M4C, SW620; cited from earlier work

Row | Compound | IC50 [1] [µM] | IC50 [2] [µM] | IC50 [3] [µM] | IC50 [4] [µM] | other results
1 | 2-((2-((((S)-2,3,4,10-tetramethoxy-9-oxo-5,6,7,9-tetrahydrobenzo[a]heptalen-7-yl)carbamoyl)oxy)ethyl)disulfanyl)ethyl 5-((3aS,4S,6aR)-2-oxohexahydro-1H-thieno[3,4-d]imidazol-4-yl)pentanoate [Compound 9] | 0.108 ± 0.01 | 0.124 ± 0.011 | 0.085 ± 0.008 | 4.22 ± 0.102 | peak area and peak height (HPLC stability) [5]: nearly remained unchanged; Deac released ([6]; PBS pH 7.2–7.4, in the presence of 5, 10, and 20 μM DTT, within 8 h, 37 °C): more than 70%; Deac released ([6]; blank PBS (pH 7.2–7.4, without DTT), within 24 h, 37 °C): almost none; cell viability ([7]; A549, compound at 2-fold IC50, biotin 0.075 μM): 23.6%; cell viability ([7]; A549, compound at 2-fold IC50, biotin 0.60 μM): 68.9%; cell viability ([7]; A549, compound at 2-fold IC50, in the absence of biotin): 17.7%; anti-tubulin polymerisation activity after coincubation with DTT ([8]; compound at 5 µM and DTT at 10 µM): strong anti-tubulin polymerisation activity; inhibition activity on tubulin polymerisation ([8]; compound at 5 µM, without DTT): weak inhibition activity
2 | 2-((2-oxo-2–(2-(5-((3aS,4S,6aR)-2-oxohexahydro-1H-thieno[3,4-d]imidazol-4-yl)pentanoyl)hydrazinyl)ethyl)thio)-N-((S)-2,3,4,10-tetramethoxy-9-oxo-5,6,7,9-tetrahydrobenzo[a]heptalen-7-yl)acetamide [Compound 11c] | 2.17 ± 0.1 | 1.95 ± 0.071 | 1.31 ± 0.092 | 10.7 ± 0.2 | –
3 | 4-oxo-4–(2-(5-((3aS,4S,6aR)-2-oxohexahydro-1H-thieno[3,4-d]imidazol-4-yl)pentanoyl)hydrazinyl)-N-((S)-2,3,4,10-tetramethoxy-9-oxo-5,6,7,9-tetrahydrobenzo[a]heptalen-7-yl)butanamide [Compound 11a] | 3.5 ± 0.15 | 7.52 ± 0.12 | 6.52 ± 0.19 | > 20 | –
4 | 5-((3aS,4S,6aR)-2-oxohexahydro-1H-thieno[3,4-d]imidazol-4-yl)-N-((S)-2,3,4,10-tetramethoxy-9-oxo-5,6,7,9-tetrahydrobenzo[a]heptalen-7-yl)pentanamide [Compound 10] | 6.35 ± 0.11 | 4.9 ± 0.18 | 4.85 ± 0.13 | 15.8 ± 0.31 | Deac released ([6]; PBS pH 7.2–7.4, after 24 h incubation in the presence or absence of 20 μM DTT): < 1.0%
5 | 5-oxo-5–(2-(5-((3aS,4S,6aR)-2-oxohexahydro-1H-thieno[3,4-d]imidazol-4-yl)pentanoyl)hydrazinyl)-N-((S)-2,3,4,10-tetramethoxy-9-oxo-5,6,7,9-tetrahydrobenzo[a]heptalen-7-yl)pentanamide [11 b] | 6.94 ± 0.16 | 2.29 ± 0.09 | 2.23 ± 0.12 | 13.4 ± 0.18 | –
6 | 5: legumain-cleavable peptide (Suc-Ala-Ala-Asn-Val)-colchicine (Suc-AANV-colchicine) [Compound 5] | – | – | – | – | toxicity to cells over-expressing active legumain compared to cells expressing low levels of active or only prolegumain [9]: more toxic
7 | O=C(O)CCCC[C@@H]1SC[C@@H]2NC(=O)N[C@@H]21 [biotin, reference compound] | – | – | – | – | cytotoxicity alone ([7]; A549, biotin alone at various concentrations): no cytotoxicity

Reference: publication PMC8725855 (Journal of Enzyme Inhibition and Medicinal Chemistry, 2021)
